melting point [°C]	Compound
221	O=C(O)c1cccnc1-c1cccc(-c2ccc(Cl)cc2)n1 [Chemical Example 3, 6′-(4-Chlorophenyl)-2,2′-bipyridine-3-carboxylic acid]
120.5	COC(=O)c1cccnc1-c1cccc(-c2ccc(Cl)cc2)n1 [Chemical Example 2, Methyl 6′-(4-chlorophenyl)-2,2′-bipyridine-3-carboxylate]

— patent US9409881B2, “Herbicidally active 6′-phenyl-2,2′-bipyridine-3-carboxylic acid derivatives” (BAYER CROPSCIENCE AG, priority 2012, dated 2016)
